BindingDB's records for doi:10.1016/0960-894X(95)00549-9 (1996)

Molecular target: T1, Bile salt-activated lipase (Bos taurus, UniProt P30122)
T1 sequence (P30122 whole entry): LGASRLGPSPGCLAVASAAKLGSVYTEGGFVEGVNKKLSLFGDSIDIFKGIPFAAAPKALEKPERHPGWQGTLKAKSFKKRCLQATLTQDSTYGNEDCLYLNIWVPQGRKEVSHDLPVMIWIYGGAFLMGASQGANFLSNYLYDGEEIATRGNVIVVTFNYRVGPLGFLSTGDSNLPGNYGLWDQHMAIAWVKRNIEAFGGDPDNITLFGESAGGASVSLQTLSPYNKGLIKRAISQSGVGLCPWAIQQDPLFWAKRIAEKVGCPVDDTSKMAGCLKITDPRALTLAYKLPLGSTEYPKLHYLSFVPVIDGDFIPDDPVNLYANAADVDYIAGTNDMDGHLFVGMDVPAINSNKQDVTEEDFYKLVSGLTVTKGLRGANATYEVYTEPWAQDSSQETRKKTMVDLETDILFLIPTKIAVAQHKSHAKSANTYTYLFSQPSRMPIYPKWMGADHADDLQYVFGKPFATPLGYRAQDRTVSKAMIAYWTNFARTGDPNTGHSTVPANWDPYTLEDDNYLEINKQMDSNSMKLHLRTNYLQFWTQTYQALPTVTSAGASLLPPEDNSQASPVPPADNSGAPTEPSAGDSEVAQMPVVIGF
Assay: Bimolecular rate constant (ki) for the Pancreatic cholesterol esterase-catalyzed hydrolysis of 4-nitrophenyl butyrate
Details: for kon: read-out: kon (M-1-s-1)

SMILES	kon (M-1-s-1)	kon
CCCCNC(=O)Oc1ccc2ccccc2c1-c1c(OC(=O)NCCCC)ccc2ccccc12 [Butyl-carbamic acid 2'-butylcarbamoyloxy-[1,1']binaphthalenyl-2-yl ester]	4000 M-1-s-1	4000 M⁻¹ s⁻¹
CCCCNC(=O)Oc1ccc2ccccc2c1-c1c(O)ccc2ccccc12 [Butyl-carbamic acid 2'-hydroxy-[1,1']binaphthalenyl-2-yl ester]	500000.000000 M-1-s-1	500000 M⁻¹ s⁻¹
CCCCNC(=O)Oc1ccc2ccccc2c1-c1c(OC(=O)CCC)ccc2ccccc12 [Butyric acid 2'-butylcarbamoyloxy-[1,1']binaphthalenyl-2-yl ester]	6000 M-1-s-1	6000 M⁻¹ s⁻¹
